Tests used:
[1] = tested on: synthesis rates of rat brain catecholamines; conditions: ip
Protocol: The effects of compounds on synthesis rates of rat brain catecholamines were estimated by measuring the accumulation of [3-(3,4-dihydroxyphenyl)-L-alanine (DOPA) after administration of the L-aromatic amino acid decarboxylase inhibitor, NSD 1015 (Pugsley, et al., 1995).
Test compounds were administered to rats i.p. 30 minutes before the injection of the L-aromatic amino acid decarboxylase inhibitor, NSD 1015 (100 mg/kg i.p.). Rats were sacrificed by decapitation 30 minutes later. The striatum and mesolimbic regions were rapidly dissected from the brains and stored at -70° C. until assayed. Synthesis rates of rat brain catecholamines were estimated by measuring the accumulation of the DA precursor DOPA after NSD 1015 administration by HPLC with electrochemical detection (Puglsey, et al., 1995). Each value represents the mean of four determinations and is expressed as a percent of the control values.

[2] = molecular target: T1, human D4.2 receptor (Homo sapiens, UniProt P21917, DEL265-296); experiment: Inhibition of [3H]spiperone binding to human dopamine D4.2 receptors; conditions: human D4.2, CHO K1 membranes
T1 construct: expressed in transfected cells; host or cells: CHO K1 cells
T1 sequence (P21917 with tags, fused parts or gaps DEL265-296): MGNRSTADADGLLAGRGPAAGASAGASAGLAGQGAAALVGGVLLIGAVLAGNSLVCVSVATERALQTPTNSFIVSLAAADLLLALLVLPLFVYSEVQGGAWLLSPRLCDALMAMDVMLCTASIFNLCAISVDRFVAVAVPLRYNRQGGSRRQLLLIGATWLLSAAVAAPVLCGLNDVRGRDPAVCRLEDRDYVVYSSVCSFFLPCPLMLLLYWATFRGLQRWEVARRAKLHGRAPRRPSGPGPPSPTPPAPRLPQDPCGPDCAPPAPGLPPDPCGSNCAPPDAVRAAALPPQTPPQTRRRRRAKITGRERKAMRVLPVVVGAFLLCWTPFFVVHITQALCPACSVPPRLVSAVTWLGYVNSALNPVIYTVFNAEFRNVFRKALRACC
Text: A cell line expressing human dopamine D2 (Long form) receptors was purchased from Oregon Health Sciences University, Portland, Oreg. The D2 receptor cDNA was subcloned into an expression vector, pRc/CMV. The plasmids were transfected by electroporation into CHO K1 cells. A single stable transfectant, resistant to the antibiotic 418, was isolated and selected for use in the binding studies. For D4 binding, CHO K1 cells stably transfected to express the human recombinant dopamine D4.2 receptor subtype, as described by Shih, et al., "The expression and functional characterization of human dopamine D4.2 receptor in CHO K1 cells," Soc. Neurosci., 1995;21(Part 1):621.
CHO K1 cells expressing either human D2 and D4.2 receptors were grown in 162 cm^2 culture flasks in F12 medium (Gibco Laboratories, Grand Island, N.Y.) supplemented with 10% fetal bovine serum (FBS, Hyclone, Logan, Utah) in an atmosphere of 5% CO2 /95% air at 37° C. Cells were grown until confluent, after which growth medium was removed and replaced with 0.02% ethylene diamine tetracetate (EDTA) in a phosphate-buffered saline solution (Sigma Chemical Co., St. Louis, Mo.) and scraped from the flasks. The cells were centrifuged at about 1000×g for 10 minutes at […] and then resuspended in TEM buffer (25 mM Tris-HCl, pH 7.4, 5 mM EDTA, and 6 mM MgCl2) for D2 or the D4.2 buffer (50 mM Tris-HCl, pH 7.4, 5 mM EDTA, 1.5 mM CaCl2, 5 mM KCl, and 120 mM NaCl) and homogenized. The membranes were pelleted by centrifugation at 20,000×g at […] for 20 minutes. Then the pellets were resuspended in appropriate buffer at 1 mL/flask and stored at -70° C. until used in the receptor binding assay.
Receptor Binding Assays: D2,D4.2 Dopamine Receptors
After 60 minutes incubation at 25° C., the incubations were terminated by rapid filtration through Whatmann F/B lass fibre filters (soaked for 1 hour in 0.5% polyethylenimine) on a cell harvester, with three washes of 1 mL ice-cold buffer. Individual filter disks containing the bound ligand were placed in counting vials with 4 mL of scintillation fluid (Ready Gel, Beckman Instrument Inc., Fullerton, Calif.) and then counted in a Beckman LS-6800 liquid scintillation counter at an efficiency of 45%. Nonspecific binding was defined in presence of 1 mM of haloperidol.
Saturation and competition binding data were analyzed using an iterative nonlinear least-square curve-fitting Ligand program. In competition experiments, apparent Ki values were calculated from IC50 values by method of Cheng and Prusoff, "Relationship between the inhibition constant (Ki) and the concentration of inhibitor which causes 50% inhibition (IC50) of an enzymatic reaction," Biochem. Pharmacol., 1973;22:3099-3108. Experimental compounds were made up as stock solutions in dimethyl sulfoxide (DMSO). […] Each observation was carried out in triplicate. To allow these calculations, Ki values were measured for the interaction of various ligands with the receptor. […]

IC50 [2]: 2.8 nM
Compound: Cc1ccc(N2CCN(Cc3ccc4c(c3)NCCN4)CC2)cc1C [Example 2, 6-[4-(3,4-Dimethylphenyl)piperazin-1-ylmethyl]-1,2,3,4-tetrahydroquinoxaline]
DA Synthesis in Rat Hippocampus [1]: +52% of the control values | DA Synthesis in Rat Striatum [1]: +66% of the control values
